pIC50: −log10 of the molar value.
The compounds below were run against T1, recombinant full-length human prolyl endopeptidase (PREP) (Homo sapiens, UniProt P48147) (assay: Biochemical human prolyl endopeptidase (PREP) assay with fluorescently labelled substrate). Conditions: substrate Z-Gly-Pro-AMC 50 μM, 32° C., 60 min; some as mean values from multiple independent determinations.
T1 construct: To recombinant full-length human prolyl endopeptidase (PREP, R&D-Systems, 4308-SE); purchased R&D-Systems 4308-SE
T1 sequence (P48147 1-710): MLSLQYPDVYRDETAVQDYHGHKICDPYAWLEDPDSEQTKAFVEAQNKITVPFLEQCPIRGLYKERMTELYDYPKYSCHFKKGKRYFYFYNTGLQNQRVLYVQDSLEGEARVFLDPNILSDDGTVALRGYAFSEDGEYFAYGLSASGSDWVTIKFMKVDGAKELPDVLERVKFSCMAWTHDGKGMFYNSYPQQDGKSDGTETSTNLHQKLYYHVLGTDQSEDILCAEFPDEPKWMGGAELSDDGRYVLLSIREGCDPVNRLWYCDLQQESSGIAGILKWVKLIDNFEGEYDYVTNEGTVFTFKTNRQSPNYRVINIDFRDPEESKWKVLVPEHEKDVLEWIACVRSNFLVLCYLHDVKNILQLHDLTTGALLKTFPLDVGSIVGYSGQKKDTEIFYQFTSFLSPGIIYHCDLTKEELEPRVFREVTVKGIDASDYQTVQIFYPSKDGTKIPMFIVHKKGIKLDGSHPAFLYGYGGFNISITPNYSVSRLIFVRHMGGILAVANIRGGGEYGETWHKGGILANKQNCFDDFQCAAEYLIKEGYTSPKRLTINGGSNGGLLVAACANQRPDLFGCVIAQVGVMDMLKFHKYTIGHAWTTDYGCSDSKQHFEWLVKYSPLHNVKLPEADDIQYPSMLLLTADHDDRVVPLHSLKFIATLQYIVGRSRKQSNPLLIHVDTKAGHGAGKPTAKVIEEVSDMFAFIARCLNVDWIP
In short: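 0.4 nM (final, example) recombinant PREP in pH 7.5 Tris buffer with EDTA, GSH, BSA and Brij-35; compounds at 1 nM to 30 μM. Reaction started with 50 μM Z-Gly-Pro-AMC and followed by fluorescence (ex 360/em 465 nm) at 32° C for 60 min. IC50 interpolated from percent activity based on initial slopes.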
`O=C([C@@H]1CCCc2nn(Cc3ccc(C(F)(F)F)c(Cl)c3)c(=O)n21)N1C[C@@H](F)[C@@H](F)C1` [Example 458, (5S)-2-[3-Chloro-4-(trifluoromethyl)benzyl]-5-{[(3R,4S)-3,4-difluoropyrrolidin-1-yl]carbonyl}-5,6,7,8-tetrahydro[1,2,4]triazolo[4,3-a]pyridin-3(2H)-one] gave a pIC50 of 9.29. For `O=C([C@@H]1CCCc2nn(Cc3ccc(C(F)(F)F)c(Cl)c3)c(=O)n21)N1CC(F)C1` [Example 459, (5S)-2-[3-Chloro-4-(trifluoromethyl)benzyl]-5-[(3-fluoroazetidin-1-yl)carbonyl]-5,6,7,8-tetrahydro[1,2,4]triazolo[4,3-a]pyridin-3(2H)-one], the pIC50 was 9.70. In the case of `O=C([C@@H]1CCCc2nn(Cc3ccc(C(F)(F)F)c(Cl)c3)c(=O)n21)N1CCC(F)(F)C1` [Example 460, (5S)-2-[3-Chloro-4-(trifluoromethyl)benzyl]-5-[(3,3-difluoropyrrolidin-1-yl)carbonyl]-5,6,7,8-tetrahydro[1,2,4]triazolo[4,3-a]pyridin-3(2H)-one], the pIC50 was 9.77. In the case of `O=C([C@@H]1CCCc2nn(Cc3ccc(C(F)(F)F)c(Cl)c3)c(=O)n21)N1CC[C@H](F)C1` [Example 461, (5S)-2-[3-Chloro-4-(trifluoromethyl)benzyl]-5-{[(3S)-3-fluoropyrrolidin-1-yl]carbonyl}-5,6,7,8-tetrahydro[1,2,4]triazolo[4,3-a]pyridin-3(2H)-one], the pIC50 was 9.20. `O=C([C@@H]1CCCc2nn(Cc3ccc(Cl)c(F)c3)c(=O)n21)N1C[C@@H](F)[C@@H](F)C1` [Example 462, (5S)-2-(4-Chloro-3-fluorobenzyl)-5-{[(3R,4S)-3,4-difluoropyrrolidin-1-yl]carbonyl}-5,6,7,8-tetrahydro[1,2,4]triazolo[4,3-a]pyridin-3(2H)-one] gave a pIC50 of 9.55. With `O=C([C@@H]1CCCc2nn(Cc3ccc(Cl)c(F)c3)c(=O)n21)N1CC(F)C1` [Example 463, (5S)-2-(4-Chloro-3-fluorobenzyl)-5-[(3-fluoroazetidin-1-yl)carbonyl]-5,6,7,8-tetrahydro[1,2,4]triazolo[4,3-a]pyridin-3(2H)-one] the pIC50 was 9.65. Compound `O=C([C@@H]1CCCc2nn(Cc3ccc(Cl)c(F)c3)c(=O)n21)N1CCC(F)(F)C1` [Example 464, (5S)-2-(4-Chloro-3-fluorobenzyl)-5-[(3,3-difluoropyrrolidin-1-yl)carbonyl]-5,6,7,8-tetrahydro[1,2,4]triazolo[4,3-a]pyridin-3(2H)-one] has a pIC50 of 9.29. In the case of `O=C([C@@H]1CCCc2nn(Cc3ccc(Cl)c(F)c3)c(=O)n21)N1CC(F)(F)C1` [Example 465, (5S)-2-(4-Chloro-3-fluorobenzyl)-5-[(3,3-difluoroazetidin-1-yl)carbonyl]-5,6,7,8-tetrahydro[1,2,4]triazolo[4,3-a]pyridin-3(2H)-one], the pIC50 was 8.68. Work on `O=C([C@@H]1CCCc2nn(Cc3ccc(F)c(F)c3)c(=O)n21)N1CC[C@H](F)C1` [Example 466, (5S)-2-(3,4-Difluorobenzyl)-5-{[(3S)-3-fluoropyrrolidin-1-yl]carbonyl}-5,6,7,8-tetrahydro[1,2,4]triazolo[4,3-a]pyridin-3(2H)-one] yielded a pIC50 of 9.39. With `O=C([C@@H]1CCCc2nn(Cc3ccc(F)c(F)c3)c(=O)n21)N1C[C@@H](F)[C@@H](F)C1` [Example 467, (5S)-2-(3,4-Difluorobenzyl)-5-{[(3R,4S)-3,4-difluoropyrrolidin-1-yl]carbonyl}-5,6,7,8-tetrahydro[1,2,4]triazolo[4,3-a]pyridin-3(2H)-one] the pIC50 was 9.31. For `O=C([C@@H]1CCCc2nn(Cc3ccc(F)c(F)c3)c(=O)n21)N1CCC(F)(F)C1` [Example 468, (5S)-2-(3,4-Difluorobenzyl)-5-[(3,3-difluoropyrrolidin-1-yl)carbonyl]-5,6,7,8-tetrahydro[1,2,4]triazolo[4,3-a]pyridin-3(2H)-one], the pIC50 was 8.85. For `O=C([C@@H]1CCCc2nn(Cc3ccc(F)c(F)c3)c(=O)n21)N1CC(F)C1` [Example 469, (5S)-2-(3,4-Difluorobenzyl)-5-[(3-fluoroazetidin-1-yl)carbonyl]-5,6,7,8-tetrahydro[1,2,4]triazolo[4,3-a]pyridin-3(2H)-one], the pIC50 was 9.10.

Reference: US10722501B2 (BAYER AKTIENGESELLSCHAFT, priority 2016, dated 2020)
